Experiments:
[1] = Dissolution of the example 7 composition in media of different pH (Basket/100 RPM/900 ml); assay type: physicochemical; conditions: 0.1N HCl vs phosphate buffer pH 6.0 and pH 6.8
[2] = cited from earlier work
[3] = cited from earlier work; remark: listed apart in the source

## CN1CCN(C2=Nc3cc(Cl)ccc3Nc3ccccc32)CC1 [Clozapine, 8-chloro-11-(4-methyl-1-piperazinyl)-5H-dibenzo[b,e][1,4]diazepine]
[1]
  solubility behaviour concluded from dissolution data: pH dependent solubility
[2]; extensive first pass metabolism
  dose that reaches systemic circulation unchanged: 27-50%
[2]; wide inter-individual variation
  plasma half-life, mean value: 6 ± 1.5 h
[3]; acidic pH
  solubility in acidic pH: soluble in acidic pH
[3]; basic pH
  solubility in basic pH: practically insoluble in basic pH
[3]; intestinal pH
  solubility in intestinal pH: insoluble in intestinal pH
[3]; water
  solubility in water: very slightly soluble in water

Source: patent US11504336B2, “Extended release pharmaceutical composition of clozapine” (INTAS PHARMACEUTICALS LTD., priority 2016, dated 2022)
